What was measured:
Assay in all cases: cells
COLO-800 = assay type: functional, cell-based, Homo sapiens; conditions: Homo sapiens, COLO-800;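 also: growth inhibition of COLO-800 cells, read out with a cell viability assay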
Description: SANGER: Inhibition of human COLO-800 cell growth in a cell viability assay.

Calu-6 = assay type: functional, cell-based, Homo sapiens; conditions: Homo sapiens, Calu-6;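 also: growth of human Calu-6 cells, read out by a cell viability assay, IC50 marking inhibition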
Description: SANGER: Inhibition of human Calu-6 cell growth in a cell viability assay.

D-263MG = assay type: functional, cell-based, Homo sapiens; conditions: Homo sapiens, D-263MG
Description: SANGER: Inhibition of human D-263MG cell growth in a cell viability assay.

D-502MG = assay type: functional, cell-based, Homo sapiens; conditions: Homo sapiens, D-502MG
Description: SANGER: Inhibition of human D-502MG cell growth in a cell viability assay.

DMS-114 = assay type: functional, cell-based, Homo sapiens; conditions: Homo sapiens, DMS-114
DOHH-2 = assay type: functional, cell-based, Homo sapiens; conditions: Homo sapiens, DOHH-2;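 also: growth inhibition of human DOHH-2 cells, read out with a cell viability assay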
Description: SANGER: Inhibition of human DOHH-2 cell growth in a cell viability assay.

EM-2 = assay type: functional, cell-based, Homo sapiens; conditions: Homo sapiens, EM-2;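 also: growth inhibition of EM-2 cells, read out with a cell viability assay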
Description: SANGER: Inhibition of human EM-2 cell growth in a cell viability assay.

ES7 = assay type: functional, cell-based, Homo sapiens; conditions: Homo sapiens, ES7;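 also: growth inhibition of cultured human ES7 cells, read out as cell viability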
Description: SANGER: Inhibition of human ES7 cell growth in a cell viability assay.

EW-11 = assay type: functional, cell-based, Homo sapiens; conditions: Homo sapiens, EW-11;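 also: growth inhibition of human EW-11 cells, measured with a cell viability assay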
Description: SANGER: Inhibition of human EW-11 cell growth in a cell viability assay.

EW-3 = assay type: functional, cell-based, Homo sapiens; conditions: Homo sapiens, EW-3;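 also: cell viability assay read-out, IC50 reflects inhibition of growth of the EW-3 cells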
Description: SANGER: Inhibition of human EW-3 cell growth in a cell viability assay.

HAL-01 = assay type: functional, cell-based, Homo sapiens; conditions: Homo sapiens, HAL-01;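 also: growth inhibition of human HAL-01 cells, read out with a cell viability assay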
Description: SANGER: Inhibition of human HAL-01 cell growth in a cell viability assay.

HD-MY-Z = assay type: functional, cell-based, Homo sapiens; conditions: Homo sapiens, HD-MY-Z;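 also: growth inhibition of HD-MY-Z cells, read out with a cell viability assay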
Description: SANGER: Inhibition of human HD-MY-Z cell growth in a cell viability assay.

HT = assay type: functional, cell-based, Homo sapiens; conditions: Homo sapiens, HT
Description: SANGER: Inhibition of human HT cell growth in a cell viability assay.

HT-144 = assay type: functional, cell-based, Homo sapiens; conditions: Homo sapiens, HT-144
Description: SANGER: Inhibition of human HT-144 cell growth in a cell viability assay.

J-RT3-T3-5 = assay type: functional, cell-based, Homo sapiens; conditions: Homo sapiens, J-RT3-T3-5;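 also: cell viability assay measuring growth inhibition of human J-RT3-T3-5 cells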
Description: SANGER: Inhibition of human J-RT3-T3-5 cell growth in a cell viability assay.

K5 = assay type: functional, cell-based, Homo sapiens; conditions: Homo sapiens, K5
Description: SANGER: Inhibition of human K5 cell growth in a cell viability assay.

KMOE-2 = assay type: functional, cell-based, Homo sapiens; conditions: Homo sapiens, KMOE-2;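 also: growth inhibition of human KMOE-2 cells, read out with a cell viability assay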
Description: SANGER: Inhibition of human KMOE-2 cell growth in a cell viability assay.

L-428 = assay type: functional, cell-based, Homo sapiens; conditions: Homo sapiens, L-428
Description: SANGER: Inhibition of human L-428 cell growth in a cell viability assay.

LNCaP-Clone-FGC = assay type: functional, cell-based, Homo sapiens; conditions: Homo sapiens, LNCaP-Clone-FGC
Description: SANGER: Inhibition of human LNCaP-Clone-FGC cell growth in a cell viability assay.

LOX IMVI = assay type: functional, cell-based, Homo sapiens; conditions: Homo sapiens, LOX IMVI
Description: SANGER: Inhibition of human LOXIMVI cell growth in a cell viability assay.

LS-411N = assay type: functional, cell-based, Homo sapiens; conditions: Homo sapiens, LS-411N
LXF-289 cell line = assay type: functional, cell-based, Homo sapiens; conditions: Homo sapiens, LXF-289
Description: SANGER: Inhibition of human LXF-289 cell growth in a cell viability assay.

MC116 = assay type: functional, cell-based, Homo sapiens; conditions: Homo sapiens, MC116;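 also: growth inhibition of MC116 cells, read out with a cell viability assay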
Description: SANGER: Inhibition of human MC116 cell growth in a cell viability assay.

MLMA = assay type: functional, cell-based, Homo sapiens; conditions: Homo sapiens, MLMA;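 also: growth inhibition of MLMA cells (human), determined through a cell viability readout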
Description: SANGER: Inhibition of human MLMA cell growth in a cell viability assay.

MV4-11 = assay type: functional, cell-based, Homo sapiens, MV-4-11; conditions: Homo sapiens, MV4-11;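 also: cell viability readout measuring growth inhibition of human MV-4-11 cells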
Description: SANGER: Inhibition of human MV-4-11 cell growth in a cell viability assay.

NB12 = assay type: functional, cell-based, Homo sapiens; conditions: Homo sapiens, NB12;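 also: growth inhibition of human NB12 cells, read out by a cell viability assay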
Description: SANGER: Inhibition of human NB12 cell growth in a cell viability assay.

NCI-H1092 = assay type: functional, cell-based, Homo sapiens; conditions: Homo sapiens, NCI-H1092;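 also: cell growth inhibition measured with a cell viability assay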
Description: SANGER: Inhibition of human NCI-H1092 cell growth in a cell viability assay.

NCI-H1355 = assay type: functional, cell-based, Homo sapiens; conditions: Homo sapiens, NCI-H1355;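 also: growth inhibition of human NCI-H1355 cells, read out by a cell viability assay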
Description: SANGER: Inhibition of human NCI-H1355 cell growth in a cell viability assay.

NCI-H23 = assay type: functional, cell-based, Homo sapiens; conditions: Homo sapiens, NCI-H23;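 also: cell viability assay measuring growth inhibition of NCI-H23 cells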
Description: SANGER: Inhibition of human NCI-H23 cell growth in a cell viability assay.

NCI-H747 = assay type: functional, cell-based, Homo sapiens; conditions: Homo sapiens, NCI-H747;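 also: growth inhibition of human NCI-H747 cells, read out by a cell viability assay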
Description: SANGER: Inhibition of human NCI-H747 cell growth in a cell viability assay.

OVCAR-4 = assay type: functional, cell-based, Homo sapiens; conditions: Homo sapiens, OVCAR-4;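 also: growth inhibition of human OVCAR-4 cells, measured with a cell viability assay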
Description: SANGER: Inhibition of human OVCAR-4 cell growth in a cell viability assay.

RCC10RGB = assay type: functional, cell-based, Homo sapiens; conditions: Homo sapiens, RCC10RGB;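 also: growth inhibition of human RCC10RGB cells, read out by a cell viability assay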
Description: SANGER: Inhibition of human RCC10RGB cell growth in a cell viability assay.

RH-1 = assay type: functional, cell-based, Homo sapiens; conditions: Homo sapiens, RH-1;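 also: growth inhibition of human RH-1 cells, read out with a cell viability assay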
Description: SANGER: Inhibition of human RH-1 cell growth in a cell viability assay.

RKO = assay type: functional, cell-based, Homo sapiens; conditions: Homo sapiens, RKO;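 also: growth inhibition of human RKO cells, read out with a cell viability assay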
Description: SANGER: Inhibition of human RKO cell growth in a cell viability assay.

SF-126 = assay type: functional, cell-based, Homo sapiens; conditions: Homo sapiens, SF-126;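 also: growth inhibition of human SF126 cells, read out with a cell viability assay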
Description: SANGER: Inhibition of human SF126 cell growth in a cell viability assay.

SJSA-1 = assay type: functional, cell-based, Homo sapiens; conditions: Homo sapiens, SJSA-1;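 also: growth inhibition of human SJSA-1 cells, read out through a cell viability measurement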
Description: SANGER: Inhibition of human SJSA-1 cell growth in a cell viability assay.

SK-LMS-1 = assay type: functional, cell-based, Homo sapiens; conditions: Homo sapiens, SK-LMS-1;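 also: growth inhibition of human SK-LMS-1 cells, read out with a cell viability assay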
Description: SANGER: Inhibition of human SK-LMS-1 cell growth in a cell viability assay.

SNB-75 = assay type: functional, cell-based, Homo sapiens; conditions: Homo sapiens, SNB-75;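 also: cell viability assay measuring growth inhibition of human SNB-75 cells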
Description: SANGER: Inhibition of human SNB75 cell growth in a cell viability assay.

TE-1 = assay type: functional, cell-based, Homo sapiens; conditions: Homo sapiens, TE-1
Description: SANGER: Inhibition of human TE-1 cell growth in a cell viability assay.

A498 = assay type: functional, cell-based, Homo sapiens; conditions: Homo sapiens, A498;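 also: growth inhibition of human A498 cells, read out with a cell viability assay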
Description: SANGER: Inhibition of human A498 cell growth in a cell viability assay.

A704 = assay type: functional, cell-based, Homo sapiens; conditions: Homo sapiens, A704;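 also: growth inhibition of human A704 cells, read out with a cell viability assay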
Description: SANGER: Inhibition of human A704 cell growth in a cell viability assay.

BB65-RCC = assay type: functional, cell-based, Homo sapiens; conditions: Homo sapiens, BB65-RCC;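 also: growth inhibition of the cell line, measured with a cell viability assay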
Description: SANGER: Inhibition of human BB65-RCC cell growth in a cell viability assay.

BV-173 = assay type: functional, cell-based, Homo sapiens; conditions: Homo sapiens, BV-173
Description: SANGER: Inhibition of human BV-173 cell growth in a cell viability assay.

C8166 = assay type: functional, cell-based, Homo sapiens; conditions: Homo sapiens, C8166;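 also: growth inhibition of human C8166 cells measured by a cell viability assay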
Description: SANGER: Inhibition of human C8166 cell growth in a cell viability assay.

TE-10 = assay type: functional, cell-based, Homo sapiens; conditions: Homo sapiens, TE-10;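 also: growth inhibition of TE-10 cells, measured by a cell viability assay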
Description: SANGER: Inhibition of human TE-10 cell growth in a cell viability assay.

TE-11 = assay type: functional, cell-based, Homo sapiens; conditions: Homo sapiens, TE-11;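 also: growth inhibition of human TE-11 cells, read out by a cell viability assay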
Description: SANGER: Inhibition of human TE-11 cell growth in a cell viability assay.

TGW = assay type: functional, cell-based, Homo sapiens; conditions: Homo sapiens, TGW;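 also: growth inhibition of human TGW cells, read out with a cell viability assay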
Description: SANGER: Inhibition of human TGW cell growth in a cell viability assay.

TK-10 = assay type: functional, cell-based, Homo sapiens; conditions: Homo sapiens, TK-10;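 also: growth inhibition of TK-10 cells, read out in a cell viability assay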
Description: SANGER: Inhibition of human TK10 cell growth in a cell viability assay.

no-11 = assay type: functional, cell-based, Homo sapiens; conditions: Homo sapiens;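 also: growth inhibition of human NO-11 cells, read out with a cell viability assay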
Description: SANGER: Inhibition of human no-11 cell growth in a cell viability assay.

Molecule `COc1cccc2c1C(=O)c1c(O)c3c(c(O)c1C2=O)C[C@@](O)(C(=O)CO)C[C@@H]3O[C@H]1C[C@H](N)[C@H](O)[C@H](C)O1` [DOXORUBICIN] has an IC50 (COLO-800) of 172 nM, an IC50 (Calu-6) of 254 nM and an IC50 (D-263MG) of 306 nM. For the same molecule, the IC50 (D-502MG) was greater than 1020 nM, the IC50 (DMS-114) was 396 nM and the IC50 (DOHH-2) was 20 nM. For the same molecule, the IC50 (EM-2) was 325 nM, the IC50 (ES7) was 51.4 nM and the IC50 (EW-11) was 342 nM. The IC50 (EW-3) was 280 nM, the IC50 (HAL-01) was 313 nM and the IC50 (HD-MY-Z) was 273 nM. It also gave an IC50 (HT) of 405 nM, an IC50 (HT-144) of 3.51 nM and an IC50 (J-RT3-T3-5) of 96.3 nM. It also gave an IC50 (K5) of 96.9 nM, an IC50 (KMOE-2) of 576 nM and an IC50 (L-428) of 791 nM. For the same molecule, the IC50 (LNCaP-Clone-FGC) was 204 nM, the IC50 (LOX IMVI) was 389 nM and the IC50 (LS-411N) was 99.1 nM. For the same molecule, the IC50 (LXF-289 cell line) was 109 nM, the IC50 (MC116) was 391 nM and the IC50 (MLMA) was 122 nM. For the same molecule, the IC50 (MV4-11) was 10 nM, the IC50 (NB12) was 277 nM and the IC50 (NCI-H1092) was 738 nM. For the same molecule, the IC50 (NCI-H1355) was 152 nM, the IC50 (NCI-H23) was 284 nM and the IC50 (NCI-H747) was 135 nM. The IC50 (OVCAR-4) was 157 nM, the IC50 (RCC10RGB) was greater than 1020 nM and the IC50 (RH-1) was 6.73 nM. The IC50 (RKO) was 22.3 nM, the IC50 (SF-126) was 105 nM and the IC50 (SJSA-1) was 111 nM. For the same molecule, the IC50 (SK-LMS-1) was 53.2 nM, the IC50 (SNB-75) was 149 nM and the IC50 (TE-1) was 76.4 nM. For the same molecule, the IC50 (A498) was greater than 1020 nM, the IC50 (A704) was greater than 1020 nM and the IC50 (BB65-RCC) was 149 nM. It also gave an IC50 (BV-173) of 251 nM, an IC50 (C8166) of 33.3 nM and an IC50 (TE-10) of 113 nM. It also gave an IC50 (TE-11) of 241 nM, an IC50 (TGW) greater than 1020 nM and an IC50 (TK-10) of 115 nM. For the same molecule, the IC50 (no-11) was 322 nM.

In the case of `O=C(O)c1ccc(-c2c[nH]c3ncc(-c4ccccc4)cc23)cc1C1CCCC1` [GSK-650394], the IC50 (COLO-800) is reported as greater than 16000 nM, the IC50 (Calu-6) is reported as greater than 16000 nM and the IC50 (D-263MG) is reported as 13700 nM. For the same molecule, the IC50 (D-502MG) was greater than 16000 nM, the IC50 (DMS-114) was greater than 16000 nM and the IC50 (DOHH-2) was greater than 16000 nM. The IC50 (EM-2) was greater than 16000 nM, the IC50 (ES7) was greater than 16000 nM and the IC50 (EW-11) was greater than 16000 nM. The IC50 (EW-3) was greater than 16000 nM, the IC50 (HAL-01) was greater than 16000 nM and the IC50 (HD-MY-Z) was greater than 16000 nM. The IC50 (HT) was greater than 16000 nM, the IC50 (HT-144) was greater than 16000 nM and the IC50 (J-RT3-T3-5) was greater than 16000 nM. For the same molecule, the IC50 (K5) was greater than 16000 nM, the IC50 (KMOE-2) was greater than 16000 nM and the IC50 (L-428) was greater than 16000 nM. It also gave an IC50 (LNCaP-Clone-FGC) greater than 16000 nM, an IC50 (LOX IMVI) greater than 16000 nM and an IC50 (LS-411N) of 10400 nM. It also gave an IC50 (LXF-289 cell line) of 1400 nM, an IC50 (MC116) greater than 16000 nM and an IC50 (MLMA) greater than 16000 nM. For the same molecule, the IC50 (MV4-11) was 165 nM, the IC50 (NB12) was greater than 16000 nM and the IC50 (NCI-H1092) was greater than 16000 nM. It also gave an IC50 (NCI-H1355) greater than 16000 nM, an IC50 (NCI-H23) greater than 16000 nM and an IC50 (NCI-H747) greater than 16000 nM. The IC50 (OVCAR-4) was greater than 16000 nM, the IC50 (RCC10RGB) was greater than 16000 nM and the IC50 (RH-1) was 7730 nM. The IC50 (RKO) was 1580 nM, the IC50 (SF-126) was 8800 nM and the IC50 (SJSA-1) was 15100 nM. For the same molecule, the IC50 (SK-LMS-1) was 5380 nM, the IC50 (SNB-75) was greater than 16000 nM and the IC50 (TE-1) was greater than 16000 nM. The IC50 (A498) was greater than 16000 nM, the IC50 (A704) was greater than 16000 nM and the IC50 (BB65-RCC) was greater than 16000 nM. The IC50 (BV-173) was greater than 16000 nM, the IC50 (C8166) was greater than 16000 nM and the IC50 (TE-10) was 14500 nM. It also gave an IC50 (TE-11) greater than 16000 nM, an IC50 (TGW) greater than 16000 nM and an IC50 (TK-10) greater than 16000 nM. It also gave an IC50 (no-11) greater than 16000 nM.

In the case of `CCC/C=C/C=C/C(=O)O[C@H]1/C(=C/C(=O)OC)C[C@H]2C[C@H]([C@@H](C)O)OC(=O)C[C@H](O)C[C@@H]3C[C@H](OC(C)=O)C(C)(C)[C@](O)(C[C@@H]4C/C(=C/C(=O)OC)C[C@H](/C=C/C(C)(C)[C@]1(O)O2)O4)O3` [BRYOSTATIN 1], the IC50 (COLO-800) is reported as greater than 8 nM, the IC50 (Calu-6) is reported as greater than 8 nM and the IC50 (D-263MG) is reported as greater than 8 nM. For the same molecule, the IC50 (D-502MG) was greater than 8 nM, the IC50 (DMS-114) was greater than 8 nM and the IC50 (DOHH-2) was greater than 8 nM. It also gave an IC50 (EM-2) greater than 8 nM, an IC50 (ES7) greater than 8 nM and an IC50 (EW-11) greater than 8 nM. For the same molecule, the IC50 (EW-3) was greater than 8 nM, the IC50 (HAL-01) was greater than 8 nM and the IC50 (HD-MY-Z) was greater than 8 nM. For the same molecule, the IC50 (HT) was greater than 8 nM, the IC50 (HT-144) was greater than 8 nM and the IC50 (J-RT3-T3-5) was greater than 8 nM. It also gave an IC50 (K5) greater than 8 nM, an IC50 (KMOE-2) greater than 8 nM and an IC50 (L-428) greater than 8 nM. The IC50 (LNCaP-Clone-FGC) was greater than 8 nM, the IC50 (LOX IMVI) was greater than 8 nM and the IC50 (LS-411N) was greater than 8 nM. It also gave an IC50 (LXF-289 cell line) greater than 8 nM, an IC50 (MC116) greater than 8 nM and an IC50 (MLMA) greater than 8 nM. It also gave an IC50 (MV4-11) greater than 8 nM, an IC50 (NB12) greater than 8 nM and an IC50 (NCI-H1092) greater than 8 nM. For the same molecule, the IC50 (NCI-H1355) was greater than 8 nM, the IC50 (NCI-H23) was greater than 8 nM and the IC50 (NCI-H747) was greater than 8 nM. The IC50 (OVCAR-4) was greater than 8 nM, the IC50 (RCC10RGB) was greater than 8 nM and the IC50 (RH-1) was greater than 8 nM. For the same molecule, the IC50 (RKO) was greater than 8 nM, the IC50 (SF-126) was greater than 8 nM and the IC50 (SJSA-1) was greater than 8 nM. For the same molecule, the IC50 (SK-LMS-1) was greater than 8 nM, the IC50 (SNB-75) was greater than 8 nM and the IC50 (TE-1) was greater than 8 nM. The IC50 (A498) was greater than 8 nM, the IC50 (A704) was greater than 8 nM and the IC50 (BB65-RCC) was greater than 8 nM. For the same molecule, the IC50 (BV-173) was greater than 8 nM, the IC50 (C8166) was greater than 8 nM and the IC50 (TE-10) was greater than 8 nM. The IC50 (TE-11) was greater than 8 nM, the IC50 (TGW) was greater than 8 nM and the IC50 (TK-10) was greater than 8 nM. The IC50 (no-11) was greater than 8 nM.

Source: ChEMBL document CHEMBL1201861, “Genomics of Drug Sensitity in Cancer screening data, Wellcome Trust Sanger Institute”
